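Results reflect a 48-hour exposure of cells in 96-well plates to compound at five concentrations. GI50 marks 50% less growth. TGI is the concentration that stops growth completely.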

Common to all, as to test: NCI tumour cell line growth inhibition, 48 h
Assay [1] relates to BT-549 breast.
Assay [2] relates to DU-145 prostate.
Assay [3] relates to EKVX NSCLC.
Assay [4] has as its system HL-60(TB) leukemia.
For assay [5], the system named is KM12 colon.
Assay [6] concerns MDA-MB-231 breast.
Assay [7] has as its system MOLT-4 leukemia.
Assay [8] relates to SF-268 CNS.
Assay [9] deals with SK-MEL-2 melanoma.
The subject of assay [10] is SK-OV-3 ovarian.

Take `CC1=C[C@H]2c3c(c(O)c(O)c4oc5ccccc5c(=O)c34)[C@H](c3cc(O)c(O)c4oc5ccccc5c(=O)c34)[C@H]2C(C)(C)C1`: the GI50 in assay [1] was 1.92 µM; in [2], 1.01 µM; in assay [3], 1.44 µM; in assay [4] it was 3.22 µM; in assay [5], 1.07 µM; in assay [6], 2.9 µM. For the same compound, the GI50 in assay [7] is 0.802 µM; in assay [8], 1.14 µM; in [9] it was 2.24 µM; in [10] it was 2.5 µM. The TGI in assay [1] came out at 6.69 µM; in [2] it was 14.4 µM; in [3] it was 12.8 µM; in [4], 10.8 µM; in assay [5], 9.53 µM; in assay [6], 19.1 µM. For the same compound, the TGI came to 24.1 µM in [7], 16.4 µM in assay [8], 6.72 µM in assay [9] and 14.2 µM in [10].

Regarding `Cc1nc2sc(C(=O)Nc3cccc4ccccc34)c(N)c2cc1C(=O)c1ccccc1`, the GI50 in [1] was 1.87 µM; in assay [2] it was 1.94 µM; in assay [3], 2.95 µM; in assay [4] it was 1.45 µM; in assay [5] it was 1.86 µM; in [6], 2.19 µM. For the same compound, the GI50 was 2.27 µM in assay [7], 3.54 µM in [8], 3.92 µM in assay [9] and 1.28 µM in [10]. Further, the TGI in [1] is over 50 µM; in assay [2], over 50 µM; in assay [3], over 50 µM; in assay [4], 4.31 µM; in assay [5], over 50 µM; in [6], over 50 µM. The TGI in assay [7], in assay [8], in [9] and in assay [10] was over 50 µM throughout.

Turning to `O=C(Nc1ccc(Cl)cc1)c1ccc(NC2=C(Cl)C(=O)N(Cc3ccccc3)C2=O)cc1`, the GI50 in [1] is 15.3 µM; in assay [2] it was 14.4 µM; in [3], 26.7 µM; in [4], 6.23 µM; in assay [5], 21.1 µM; in assay [6] it was 13.9 µM. Further, the GI50 in [7] is 3.26 µM; in [8], 17.8 µM; in assay [9], 14.2 µM; in assay [10], 32.9 µM. Further, the TGI in [1] is 34.2 µM; in assay [2], 38.6 µM; in [3], 89.5 µM; in [4], over 100 µM; in [5] it was 56.7 µM; in assay [6] it was 38.1 µM. Moreover, the TGI is 44.8 µM in assay [7], 50.2 µM in assay [8], 40.4 µM in [9] and over 100 µM in assay [10].

Take `O=S(=O)(NCC1CCC(CNc2ccc(Cl)cc2)CC1)c1ccc(-c2ccccc2)cc1` (stereo not given): the GI50 was over 50 µM in [1]; over 50 µM in [2]; 25.7 µM in assay [3]; over 50 µM in assay [4]; over 50 µM in assay [5]; 15.7 µM in assay [6]. Besides, the GI50 in [8], in [9] and in assay [10] was over 50 µM throughout. Moreover, the TGI in assay [1], in assay [2], in [3], in [4], in assay [5] and in assay [6] was over 50 µM in each case. Further, the TGI in assay [8], in assay [9] and in [10] was over 50 µM each time.

With `OCC1OC(n2ccc3c(NO)ncnc32)C(O)C1O` (stereo not given), the GI50 in assay [1] is 0.193 µM; in [2] it was 0.111 µM; in assay [3], 0.241 µM; in [4] it was 0.214 µM; in [5], 0.234 µM; in [6], 0.233 µM. The GI50 in [7] is 0.153 µM; in assay [8], 0.233 µM; in [9], 0.155 µM; in assay [10], 0.12 µM. The TGI in assay [1] is 0.764 µM; in assay [2], 0.702 µM; in [3] it was 0.994 µM; in assay [4] it was 0.638 µM; in [5], 1.12 µM; in assay [7], 0.477 µM. Also, the TGI in [8] is 2.81 µM; in assay [9] it was 0.429 µM; in assay [10], 5.38 µM.

Take `N#Cc1cnc2cc(OC[C@@H](O)CO)c(NC(=O)CC3CSSC3)cc2c1Nc1ccc(OCc2cccc(F)c2)c(Cl)c1`: the GI50 in assay [1] is 0.155 µM; in assay [2], 0.131 µM; in assay [3] it was 0.265 µM; in assay [4] it was 0.589 µM; in assay [5], 0.112 µM; in [6], 0.104 µM. For the same compound, the GI50 in assay [7] is 0.0736 µM; in assay [8] it was 0.0814 µM; in assay [9], 0.117 µM; in assay [10], 0.567 µM. For the same compound, the TGI in [1] was 0.523 µM; in [2] it was 0.398 µM; in [3], 1.18 µM; in assay [4], 1.47 µM; in [5], 0.251 µM; in assay [6] it was 0.237 µM. In addition, the TGI in assay [7] worked out at 0.174 µM; in assay [8], 0.771 µM; in assay [9], 0.286 µM; in assay [10] it was 1.27 µM.

With `COC(=O)c1sc(C(=O)OC)c2c1CSC2`, the TGI in assay [1], in assay [2], in [3], in assay [4], in assay [5] and in assay [6] was over 100 µM each time. Further, the TGI in assay [7], in [8], in assay [9] and in [10] was over 100 µM each time.

`Nc1ccc2c(c1)NCCN2`: the TGI was over 100 µM in assay [1]; over 100 µM in assay [2]; over 100 µM in assay [3]; 89.4 µM in assay [4]; over 100 µM in assay [5]; over 100 µM in assay [6]. Further, the results for the TGI in assay [7], in assay [8] and in [9] were 89.7 µM, over 100 µM and over 100 µM, respectively.

As for `CCCCNN`, the TGI in [1], in [2], in assay [3], in assay [4], in assay [5] and in assay [6] was over 100 µM throughout. The TGI in [7], in assay [9] and in assay [10] was over 100 µM each time.

These data come from PubChem BioAssay (NCI).
